Some test systems named below: KM12 colon; HOP-62 NSCLC; K-562 leukemia; HCT-116 colon; CAKI-1 renal; HOP-92 NSCLC; MOLT-4 leukemia; NCI/ADR-RES ovarian; PC-3 prostate; CCRF-CEM leukemia; SF-539 CNS; IGROV1 ovarian.
What all share (assay): inhibition of tumour cell growth, NCI panel, 48 h

Structures are written as SMILES.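 Exposure lasted 48 hours, with cells grown in 96-well plates and compounds tested at five concentrations. At the GI50, growth is halved. Definition used: TGI = concentration required for complete inhibition of growth.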

In the case of `O=c1onc(Nc2ccccc2)n1-c1ccccc1`, the TGI in the assay on KM12 colon, with HOP-62 NSCLC, in the assay on K-562 leukemia, in the assay with HCT-116 colon, in the assay with CAKI-1 renal and in the assay on HOP-92 NSCLC was over 100 µM each time. The TGI in the assay with MOLT-4 leukemia, with NCI/ADR-RES ovarian, in the assay on PC-3 prostate, with CCRF-CEM leukemia, in the assay with SF-539 CNS and in the assay with IGROV1 ovarian was over 100 µM in each case.
For `CC1=NN2CCC(=O)N=C2S1`, the TGI in the assay on KM12 colon, in the assay with HOP-62 NSCLC, in the assay with K-562 leukemia, with HCT-116 colon, with CAKI-1 renal and in the assay with HOP-92 NSCLC was over 100 µM each time. Besides, the TGI in the assay on MOLT-4 leukemia, with NCI/ADR-RES ovarian, in the assay with PC-3 prostate, with CCRF-CEM leukemia, in the assay on SF-539 CNS and with IGROV1 ovarian was over 100 µM throughout.
Take `CC(C)(C)CC(C)(C)NCC(O)COc1ccc(C(C)(C)c2ccc(OCC(O)CNC(C)(C)CC(C)(C)C)cc2)cc1` (centres undefined): the TGI with KM12 colon amounted to 2.31 µM; in the assay on HOP-62 NSCLC, 3.19 µM; with K-562 leukemia it was 1.16 µM; in the assay with HCT-116 colon it was 5.38 µM; in the assay on CAKI-1 renal, 3.13 µM; in the assay with HOP-92 NSCLC it was 3 µM. Also, the TGI in the assay on MOLT-4 leukemia stood at 1.26 µM; in the assay on NCI/ADR-RES ovarian, 2.84 µM; in the assay with PC-3 prostate it was 3.38 µM; in the assay with CCRF-CEM leukemia it was 1.03 µM; in the assay on SF-539 CNS it was 3.33 µM; in the assay on IGROV1 ovarian it was 3.23 µM. Further, the GI50 is 1.41 µM with NCI/ADR-RES ovarian and 1.88 µM in the assay on PC-3 prostate.
For `Nc1ccc(C(=O)O)cc1`, the TGI in the assay on KM12 colon, with HOP-62 NSCLC, in the assay on K-562 leukemia, in the assay on HCT-116 colon, with CAKI-1 renal and in the assay on HOP-92 NSCLC was over 100 µM in each case. Besides, the TGI in the assay with MOLT-4 leukemia, in the assay on NCI/ADR-RES ovarian, with PC-3 prostate, with CCRF-CEM leukemia, in the assay on SF-539 CNS and in the assay on IGROV1 ovarian was over 100 µM throughout.
In the case of `Cc1nccn1S(=O)(=O)c1ccc(Cl)cc1`, the TGI is over 100 µM in the assay on KM12 colon; over 100 µM in the assay on HOP-62 NSCLC; over 100 µM in the assay on K-562 leukemia; over 100 µM in the assay on HCT-116 colon; over 100 µM in the assay on CAKI-1 renal; 64.3 µM in the assay on HOP-92 NSCLC. In addition, the TGI in the assay on MOLT-4 leukemia, in the assay with NCI/ADR-RES ovarian, in the assay on PC-3 prostate, in the assay with CCRF-CEM leukemia, with SF-539 CNS and in the assay on IGROV1 ovarian was over 100 µM in each case.
Take `CCCCCCCCCCOc1ccc(N=Nc2nnc(-c3ccc(OCCCCC)cc3)s2)cc1`: the TGI in the assay on KM12 colon, in the assay on HOP-62 NSCLC, in the assay with K-562 leukemia, in the assay on HCT-116 colon, in the assay on CAKI-1 renal and in the assay with HOP-92 NSCLC was over 100 µM each time. Further, the TGI in the assay with MOLT-4 leukemia, in the assay with NCI/ADR-RES ovarian, in the assay with PC-3 prostate, in the assay on CCRF-CEM leukemia, in the assay with SF-539 CNS and with IGROV1 ovarian was over 100 µM throughout.
As for `CCOC(=O)C1=C(C)N(Cc2ccccc2)C2(O)C(OC)CC(=O)C3C(=O)N(c4ccccc4)C(=O)C132` (centres undefined), the TGI in the assay with KM12 colon is 55.6 µM; in the assay on HOP-62 NSCLC, over 100 µM; in the assay on K-562 leukemia, over 100 µM; with HCT-116 colon, over 100 µM; with CAKI-1 renal, 64.8 µM; in the assay with HOP-92 NSCLC, 44.5 µM. Further, the TGI in the assay on MOLT-4 leukemia is 81.6 µM; in the assay on NCI/ADR-RES ovarian, over 100 µM; in the assay with PC-3 prostate, 50.8 µM; in the assay with CCRF-CEM leukemia it was over 100 µM; in the assay on SF-539 CNS, 48.6 µM; with IGROV1 ovarian it was 37.6 µM.
For the compound `CCCCCCCCCCCCCCCCCCNc1nc(=O)n(C2CC(OP(=O)(O)OCC3OC(n4cc(F)c(=O)[nH]c4=O)CC3O)C(CO)O2)cc1F` (centres undefined), the TGI with KM12 colon is 27.8 µM; in the assay with HOP-62 NSCLC, over 100 µM; in the assay with K-562 leukemia, over 100 µM; in the assay with HCT-116 colon it was over 100 µM; in the assay on CAKI-1 renal, over 100 µM; in the assay on HOP-92 NSCLC, over 100 µM. The TGI with MOLT-4 leukemia is 41.9 µM; in the assay with NCI/ADR-RES ovarian, over 100 µM; in the assay with PC-3 prostate it was over 100 µM; with CCRF-CEM leukemia, 42.7 µM; in the assay with SF-539 CNS it was 43.9 µM; in the assay with IGROV1 ovarian, over 100 µM.
On to `COc1ccc(/C=C2\OC(=O)C(Cl)=C2c2ccc(OC)c(Cl)c2)cc1`, for which the TGI with KM12 colon is over 100 µM; with HOP-62 NSCLC it was 35.7 µM; in the assay on K-562 leukemia, over 100 µM; with HCT-116 colon, over 100 µM; in the assay on CAKI-1 renal, 56.8 µM; with HOP-92 NSCLC, 46.1 µM. The TGI in the assay with MOLT-4 leukemia was over 100 µM; in the assay on NCI/ADR-RES ovarian it was 52.6 µM; with PC-3 prostate, over 100 µM; with CCRF-CEM leukemia, over 100 µM; in the assay with SF-539 CNS, 33.2 µM; in the assay with IGROV1 ovarian, over 100 µM.
On to `COc1ccc(/C=C(/c2ccc(OC)cc2)c2c(Cl)cc(Cl)c(/C(=C\c3ccc(OC)cc3)c3ccc(OC)cc3)c2N=Nc2ccccc2)cc1`, for which the TGI in the assay with KM12 colon, with HOP-62 NSCLC, in the assay on K-562 leukemia, with HCT-116 colon, with CAKI-1 renal and with HOP-92 NSCLC was over 100 µM in each case. For the same compound, the TGI with MOLT-4 leukemia, in the assay on NCI/ADR-RES ovarian, in the assay with PC-3 prostate, with CCRF-CEM leukemia, in the assay with SF-539 CNS and in the assay with IGROV1 ovarian was over 100 µM in each case.
Turning to `O=C(CN1CCN(c2ccccn2)CC1)N1CCCn2c1nc1ccccc1c2=O`, the TGI in the assay on KM12 colon, in the assay on HOP-62 NSCLC, with K-562 leukemia, with HCT-116 colon, in the assay on CAKI-1 renal and in the assay with HOP-92 NSCLC was over 100 µM in each case. Moreover, the TGI with MOLT-4 leukemia, in the assay on NCI/ADR-RES ovarian, with PC-3 prostate, in the assay with CCRF-CEM leukemia, in the assay with SF-539 CNS and with IGROV1 ovarian was over 100 µM in each case.
As for `Cn1c2ccccc2c2c3c(c4c5ccccc5n(C)c4c21)C(=O)N(c1ccccc1)C3=O`, the TGI in the assay on KM12 colon, in the assay on HOP-62 NSCLC, in the assay on K-562 leukemia, with HCT-116 colon, in the assay with CAKI-1 renal and with HOP-92 NSCLC was over 100 µM in each case. Besides, the TGI in the assay with MOLT-4 leukemia, with NCI/ADR-RES ovarian, in the assay on PC-3 prostate, with CCRF-CEM leukemia, in the assay on SF-539 CNS and with IGROV1 ovarian was over 100 µM throughout.
Take `Cn1c(-c2c(C3=CC(=O)N(c4ccccc4)C3=O)c3ccccc3n2C)cc2ccccc21`: the TGI in the assay on KM12 colon, with HOP-62 NSCLC, in the assay on K-562 leukemia, in the assay on HCT-116 colon, in the assay with CAKI-1 renal and with HOP-92 NSCLC was over 100 µM in each case. The TGI in the assay with MOLT-4 leukemia, in the assay on NCI/ADR-RES ovarian, in the assay on PC-3 prostate, in the assay with CCRF-CEM leukemia, in the assay on SF-539 CNS and in the assay on IGROV1 ovarian was over 100 µM in each case.
As for `CC1=NN(c2nc(N)nc(-c3cc4ccccc4oc3=N)n2)C(C)(C)C1`, the TGI in the assay on KM12 colon was found to be 34.2 µM; in the assay with HOP-62 NSCLC, 37.2 µM; in the assay on K-562 leukemia it was 53.1 µM; in the assay with HCT-116 colon, 35.5 µM; in the assay with CAKI-1 renal, 31.1 µM; in the assay with HOP-92 NSCLC it was 42.7 µM. For the same compound, the TGI with MOLT-4 leukemia came to 34.6 µM; in the assay with NCI/ADR-RES ovarian, 43.9 µM; with PC-3 prostate, 33 µM; in the assay with CCRF-CEM leukemia, 48.6 µM; in the assay on SF-539 CNS, 34.1 µM; in the assay with IGROV1 ovarian, 32.1 µM.
For `COC(=N)CCCl`, the TGI in the assay with KM12 colon, in the assay with HOP-62 NSCLC, in the assay on K-562 leukemia, in the assay on HCT-116 colon, in the assay on CAKI-1 renal and with HOP-92 NSCLC was over 100 µM in each case. In addition, the TGI in the assay on MOLT-4 leukemia, in the assay on NCI/ADR-RES ovarian, in the assay on PC-3 prostate, with CCRF-CEM leukemia, with SF-539 CNS and in the assay on IGROV1 ovarian was over 100 µM in each case.
`CCN(CCC#N)C(=O)Nc1ccccc1`: the TGI in the assay on KM12 colon, with HOP-62 NSCLC, in the assay on K-562 leukemia, in the assay with HCT-116 colon, in the assay on CAKI-1 renal and in the assay with HOP-92 NSCLC was over 100 µM in each case. In addition, the TGI with MOLT-4 leukemia, in the assay with NCI/ADR-RES ovarian, in the assay on PC-3 prostate, with CCRF-CEM leukemia, in the assay with SF-539 CNS and with IGROV1 ovarian was over 100 µM each time.

For the origin of these results see PubChem BioAssay (NCI).
